Source: patent publication US11951167B2, “Targeted liposomes” (GEORGETOWN UNIVERSITY, priority 2012, dated 2024)

Key:
[1] = tested on: intracranial U87MG-luc2 glioblastoma tumor xenografts; experiment: Efficacy in intracranial GBM xenografts (MRI, BLI, body weight, survival)
Method: Intra cranial GBM tumors were induced in 5-6 week old female athymic nude mice by stereotaxic inoculation of U87MG-luc2 cells that stably carry the luciferase gene. Seven to ten days post-inoculation, tumors were evaluated by bioluminescence using Xenogen IVIS in vivo imaging system (Caliper Life Sciences) and mice were evenly divided into treatment groups. Treatment was initiated on the day of randomization (day 0). Animals were injected intravenously (i.v.) via the tail vein with 5 mg/kg (per injection per mouse) of TMZ alone or TfRscFv-targeted TMZ cationic liposome complex (scL-TMZ). […] Mice were injected twice per week with each reagent for 5 weeks. Control animals (Vehicle) received Liposome only (no TMZ, no TfRscFv).
Assessment of in vivo efficacy: The in vivo response to treatment was evaluated based upon the changes in tumor growth, body weight change, and overall survival. Tumor growth was monitored by bioluminescence imaging (BLI) using Xenogen IVIS in vivo imaging system before, during, and after the treatments at the indicated date. […] The bioluminescence intensity of the brain tumors, a measure of tumor size/growth, was measured and compared between treatment groups. Half-way through treatment (after mice received 3 weeks of treatment with each reagent), all animals were scanned with magnetic resonance imaging (MRI) to evaluate the brain tumor. […] Tumor volume was calculated from the MRI scan and compared between treatment groups. Body weight change was monitored weekly. Overall survival was recorded and plotted by Kaplan-Meier method.
In a second experiment, different doses/number of injections per week of scL-TMZ, prepared as described herein, were compared. Groups of mice bearing U87MG-luc2 glioblastoma intracranial xenograft tumors were iv tail vein injected for 5 weeks with scL-TMZ at: 2.5 mg/kg one injection per week; 5 mg/kg one injection per week; or 5 mg/kg two injections per week and survival determined.

T98G cells = details: TMZ resistant T98G, XTT
From the text: The in vitro cell killing ability of the scL-TMZ was compared to free, unencapsulated TMZ in TMZ resistant human brain tumor cell line T98G using the XTT assay.

[2] = tested on: glioblastoma multiforme / anaplastic astrocytoma; details: cited from earlier work
U251 cells = experiment: XTT cell viability, liposome TMZ vs free TMZ; assay type: cell-based, human; details: at 16-46.3 μM TMZ
Method: Studies were carried out to compare the efficacy of standard free (unencapsulated) TMZ; and unliganded TMZ-containing liposomes (Lip-TMZ) The Lip-TMZ was prepared as described above in Example 1 using a liposome concentration of 2 mM. The zeta potentials of the Lip-TMZ molecules ranged from 35.6-40.1 mV. The TMZ concentration used was varied from 1 to about 250 uM. The ratios of Liposome to TMZ was 0.5:1, 1:1 or 2:1 (molar ratio).
Human brain tumor derived U251 cells were plated in triplicate at 2×10^3 per well in a 96-well plate. Following overnight incubation, the medium was replaced with serum-free medium, overlaid with 100 μL of indicated concentrations of either Lip-TMZ, or free TMZ, incubated for 5 h, and then supplemented with fetal bovine serum. After incubation for an additional 91 h, cell viability was determined by the XTT assay as described previously (Rait A, Pirollo K F, Rait V, et al. Inhibitory effects of the combination of HER-2 antisense oligonucleotide and chemotherapeutic agents used for the treatment of human breast cancer. Cancer Gene Ther 2001; 8:728-39.). Formazan absorbance, which correlates to cell viability, was measured at 450 nm using a microplate reader (Bio-Rad, Hercules, Calif.).

U87 cells = experiment: XTT cell viability, Lip-TMZ vs free TMZ; assay type: cell-based, human
[3] = tested on: U87MG-Luc xenograft brain tumors; experiment: Intracranial tumor growth (BLI, MRI), scL-p53 plus TMZ; assay type: in vivo, nude mice; details: TMZ 5.0 mg/kg, scL-p53 30 ug DNA/mouse, i.v. 2x/week, 10 injections
Method: An experiment was performed to examine tumor growth inhibition induced by the sensitization of IC brain tumors to TMZ by systemic administration of scL-p53 prepared as described in U.S. Pat. No. 7,780,882. U87MG-Luc xenograft brain tumors were induced in nude mice by intracranially inoculating U87MG-luc cells. This cell line, obtained from Caliper Life Sciences, has been modified to stably express the Luciferase gene. 10 days post-inoculation, tumor-bearing animals were i.v. tail vein injected with TMZ alone (5.0 mg/kg/injection), scL-p53 alone (30 ug DNA/mouse/injection) or TMZ in combination with scL-p53. As a control, one group received PBS (vehicle). All i.v. injections were administered 2×/week to a total of 10 injections. To assess tumor response, bioluminescence imaging (BLI) was performed using IVIS® Imaging System's Xenogen. FIG. 24 is a comparison of in vivo anti-tumor efficacy of the various groups. Bioluminescence signals which correlate to tumor size are shown in a color map. Red color (at the top of the scale bar): the stronger signal, Violet color (at the bottom of the scale bar): the weaker signal. […] The horizontal bar indicates the duration of treatment (Last treatment=Day 24).
To confirm the bioluminescence findings, the mice were also imaged by MRI, without contrast agent, before and after the mice received 3 weeks of treatment. […]

intracranial T98G tumors = experiment: Survival of mice with TMZ resistant intracranial GBM tumors; assay type: in vivo, athymic nude mice; details: TMZ 100 mg/m^2 i.v. daily for 14 days; scL-p53 30 ug DNA twice weekly for 2 weeks
Method: Thus an experiment was performed to assess survival of mice bearing intracranial tumors derived from TMZ resistant human GBM cell line T98G. Athymic nude mice were intracranially inoculated with T98G human glioblastoma cell line. Ten days after the inoculation, animals were imaged by MRI and evenly divided into 3 groups. Treatment was started immediately after imaging. The animals were iv treated with 100 mg/m^2 of TMZ once a day for 14 consecutive days, iv administered scL-p53 (30 ug DNA/injection) (prepared as described in U.S. Pat. No. 7,780,882) twice weekly for 2 weeks, or the combination of both treatments. Survival was monitored. The number of mice surviving/group at day 14 is indicated for each group. […] In contrast, 4 of 5 mice that had received the combination therapy were still surviving.

[4] = 5 mg/kg i.v. twice per week for 5 weeks

With Cn1nnc2c(C(N)=O)ncn2c1=O [TMZ, temozolomide] the “long term survival (Kaplan-Meier)” value [1, 4] was “extended the lifespan”, the “time tumor growth was controlled (BLI)” value [1, 4] was ~2.5 weeks and the “tumor growth by MRI” value ([1]; 5 mg/kg i.v. twice per week, after 3 weeks (6 injections)) was “some tumor growth inhibition”. For the same compound, the IC50 (T98G cells) was > 1000 µM, the “AA patients who do not benefit from TMZ” value ([2]; human, in vivo) was 50% and the “GBM patients who do not benefit from TMZ” value ([2]; human, in vivo) was 60-75%. The “median increase in survival compared to radiation alone” value ([2]; subset of GBM patients) was 2.5 months, the cell killing effect (U251 cells) was “virtually no cell killing effect” and the cell killing effect (U87 cells) was “virtually no cell killing effect”. For the same compound, the “IC tumor growth during treatment (BLI)” value [3] was “some minimal effect” and the “mice surviving at day 14” value (intracranial T98G tumors) was “a significant number of animals succumbed”.
